Like-named read-outs stand apart in the source and are kept apart here.
Assay: logP determination (acidic, pH 2.3)
Type: physicochemical
[1] = acidic, read-out: logP (acidic)

SMILES	logP [1]	logP (read-out: log P (pH 2.3))
Cc1cc(Oc2nc(C(C)(C)C)ns2)c(C)cc1/N=C/N1CCCCC1 [A-3, 4-[(3-(tert-butyl)-1,2,4-thiadiazol-5-yl)oxy]-2,5-dimethyl-N-[(1E)-piperidin-1-ylmethylene]aniline]	2.22	–
Cc1cc(Oc2nc(C(C)(C)C)ns2)c(C)cc1N=CN(C)C(C)C [A-2, N′-{4-[(3-(tert-butyl)-1,2,4-thiadiazol-5-yl)oxy]-2,5-dimethylphenyl}-N-isopropyl-N-methylimidoformamide]	2.15	–
Cc1cc(Oc2nc(C(C)(C)C)ns2)c(C)cc1N [4-[(3-(tert-Butyl)-1,2,4-thiadiazol-5-yl)oxy]-2,5-dimethylaniline]	–	3.29
Cc1cc(Oc2nc(C(C)(C)C)ns2)c(Cl)cc1/N=C/N1CCCCC1 [A-9, 4-[(3-(tert-butyl)-1,2,4-thiadiazol-5-yl)oxy]-5-chloro-2-methyl-N-[(1E)-piperidin-1-ylmethylene]aniline]	2.36	–
CCN(C)/C=N/c1cc(C)c(Oc2nc(C(C)(C)C)ns2)cc1C [A-1, N′-{4-[(3-(tert-butyl)-1,2,4-thiadiazol-5-yl)oxy]-2,5-dimethylphenyl}-N-ethyl-N-methylimidoformamide]	–	2.02
CCN(C)C=Nc1cc(Cl)c(Oc2nc(C(C)(C)C)ns2)cc1C [A-8, N′-{4-[(3-(tert-butyl)-1,2,4-thiadiazol-5-yl)oxy]-5-chloro-2-methylphenyl}-N-ethyl-N-methylimidoformamide]	2.11	–
CC(C)(C)c1nsc(Cl)n1 [3-(tert-Butyl)-5-chloro-1,2,4-thiadiazole]	–	3.44
